One block for each compound: values may come before it.
How the values were obtained:
[1] = Solubilization of nitroimidazoles in water with and without acids: crystals forced at about 4° C., re-dissolution observed at about 20° C. over about 14 days; type: physicochemical; design: key to crystals present: − means no crystals present; + means crystal are present; conditions: for crystals present: water, about 20° C., 14 days
Protocol: Heat was applied, if necessary, to dissolve the nitroimidazole. No organic co-solvents, water-soluble vitamins, or cyclodextrins were present in the solutions. The amount of acid was selected to be about equimolar with the amount of nitroimidazole added. After the nitroimidazole was dissolved, each solution was cooled to about 4° C. to force crystallization of some of the nitroimidazole. If crystals were not observed upon cooling, seed crystals of nitroimidazole were added and the solution were again maintained at about 4° C. […] The absence of crystals after 14 days indicates effective dissolution of the nitroimidazole.

[2] = in water at neutral pH; cited from earlier work

crystals present ([1]; Tinidazole Concentration 0.45%, Acid: Acetic (about equimolar)): −
crystals present ([1]; Tinidazole Concentration 0.45%, Acid: Citric (about equimolar)): −
crystals present ([1]; Tinidazole Concentration 0.45%, Acid: Hydrochloric (about equimolar)): −
crystals present ([1]; Tinidazole Concentration 0.45%, Acid: None): −
crystals present ([1]; Tinidazole Concentration 0.45%, Acid: Tartaric (about equimolar)): −
crystals present ([1]; Tinidazole Concentration 0.50%, Acid: Acetic (about equimolar)): −
crystals present ([1]; Tinidazole Concentration 0.50%, Acid: Citric (about equimolar)): −
crystals present ([1]; Tinidazole Concentration 0.50%, Acid: Hydrochloric (about equimolar)): −
crystals present ([1]; Tinidazole Concentration 0.50%, Acid: None): +
crystals present ([1]; Tinidazole Concentration 0.50%, Acid: Tartaric (about equimolar)): −
crystals present ([1]; Tinidazole Concentration 0.55%, Acid: Acetic (about equimolar)): +
crystals present ([1]; Tinidazole Concentration 0.55%, Acid: Citric (about equimolar)): −
crystals present ([1]; Tinidazole Concentration 0.55%, Acid: Hydrochloric (about equimolar)): −
crystals present ([1]; Tinidazole Concentration 0.55%, Acid: None): +
crystals present ([1]; Tinidazole Concentration 0.55%, Acid: Tartaric (about equimolar)): −
crystals present ([1]; Tinidazole Concentration 0.60%, Acid: Acetic (about equimolar)): +
crystals present ([1]; Tinidazole Concentration 0.60%, Acid: Citric (about equimolar)): +
crystals present ([1]; Tinidazole Concentration 0.60%, Acid: Hydrochloric (about equimolar)): +
crystals present ([1]; Tinidazole Concentration 0.60%, Acid: None): +
crystals present ([1]; Tinidazole Concentration 0.60%, Acid: Tartaric (about equimolar)): +
concentration obtained (as high as), free from crystals ([1]; at 20° C., utilizing citric acid and using tartaric acid): about 0.55 percent by weight
Compound: CCS(=O)(=O)CCn1c([N+](=O)[O-])cnc1C [Tinidazole, 1-[2-(ethylsulfonyl)ethyl]-2-methyl-5-nitroimidazole]
solubility in water [2]: about 0.45 percent by weight

crystals present ([1]; Metronidazole Concentration 0.8%, Acid: Acetic (about equimolar)): −
crystals present ([1]; Metronidazole Concentration 0.8%, Acid: Hydrochloric (about equimolar)): −
crystals present ([1]; Metronidazole Concentration 0.8%, Acid: None): −
crystals present ([1]; Metronidazole Concentration 0.8%, Acid: Tartaric (about equimolar)): −
crystals present ([1]; Metronidazole Concentration 1.0%, Acid: Acetic (about equimolar)): −
crystals present ([1]; Metronidazole Concentration 1.0%, Acid: Citric (about equimolar)): −
crystals present ([1]; Metronidazole Concentration 1.0%, Acid: Hydrochloric (about equimolar)): −
crystals present ([1]; Metronidazole Concentration 1.0%, Acid: None): +
crystals present ([1]; Metronidazole Concentration 1.0%, Acid: Tartaric (about equimolar)): −
crystals present ([1]; Metronidazole Concentration 1.2%, Acid: Acetic (about equimolar)): +
crystals present ([1]; Metronidazole Concentration 1.2%, Acid: Hydrochloric (about equimolar)): +
crystals present ([1]; Metronidazole Concentration 1.2%, Acid: Tartaric (about equimolar)): −
crystals present ([1]; Metronidazole Concentration […], Acid: Citric (about equimolar)): −
crystals present ([1]; Metronidazole Concentration […], Acid: None): +
concentration of solutions free from crystals ([1]; at 20° C., utilizing organic acids (e.g., acetic acid, citric acid, tartaric acid, and malic acid)): at least 1 percent by weight
Compound: Cc1ncc([N+](=O)[O-])n1CCO [Metronidazole, 1-(2-hydroxyethyl)-2-methyl-5-nitroimidazole]
solubility in water [2]: less than 1 percent by weight

Reference: US20080063670A1, “Nitroimidazole composition and method” (priority 2006, published 2008)
